Reference: patent US20260274876A1, “3-PYRROLIDINE-INDOLE DIMERS AS SEROTONERGIC AGENTS USEFUL FOR THE TREATMENT OF DISORDERS RELATED THERETO” (MINDSET PHARMA INC., priority 2022, published 2026)
Like-named read-outs stand apart in the source and are kept apart here.

Assays:
[1] = biological target: human 5-HT2A receptor (Homo sapiens, UniProt P28223); test: Human 5-HT2A radioligand binding assay ([3H]-ketanserin)
Method: The objective of this study was to evaluate the binding properties of exemplary compounds of Formula I on 5-hydroxytryptamine receptor 2A (5-HT2A).
(§1) • 1. The assay buffer was prepared following the table below.
• 2. 8 doses of reference and test compounds starting from 10 mM stock solution as required was prepared by 5-fold serial dilutions with 100% (v/v) DMSO. • 3. UniFilter-96 GF/B plate was pretreated: • i. 50 μl/well of 0.5% (v/v) PEI was added to […]. The plates were sealed and incubated at […] for 3 hrs. • ii. After incubation, the plates were washed 3 times with ice-cold wash buffer (50 mM Tris, pH7.4). • 4. The assay plate was prepared: • i. Cell membrane was diluted with assay buffer and 330 μl/well was added to 96 round deep well plates to reach a concentration of 20 μg/well. • ii. 8 concentrations of reference or test compounds were prepared and 110 μl/well was added to 96 round deep well plates. • iii. [3H]-ketanserin was diluted with assay buffer to 5 nM (5×final concentration) and 110 μl/well was added to 96 round deep well plates. • 5. The plate was centrifuged at 1000 rpm for 30 secs and then agitated at 600 rpm, R.T. for 5 min. • 6. The plates were sealed and the plate incubated at 279C for 90 min. • 7. The incubation was stopped by vacuum filtration onto GF/B filter plates followed by 4 times washing with ice-cold wash buffer (50 mM Tris, pH7.4). • 8. The plates were dried at 379C for 45 min. • 8. The filter plates were sealed and 40 μl/well of scintillation cocktail was added. • 10. The plate was read by using a Microbeta^2 microplate counter.
(§2) • 1. For reference and test compounds, the results were expressed as % Inhibition, using the normalization equation: N=100−100×(U−C2)/(C1−C2), where U is the unknown value, C1 is the average of high controls, and C2 is the average of low controls. • 2. The IC50 was determined by fitting percentage of inhibition as a function of compound concentrations with Hill equation using XLfit.

[2] = biological target: T1, human 5-HT1A receptor (Homo sapiens, UniProt P08908); test: Human 5-HT1A radioligand binding assay ([3H]-8-Hydroxy-DPAT)
T1 sequence (P08908 1-422): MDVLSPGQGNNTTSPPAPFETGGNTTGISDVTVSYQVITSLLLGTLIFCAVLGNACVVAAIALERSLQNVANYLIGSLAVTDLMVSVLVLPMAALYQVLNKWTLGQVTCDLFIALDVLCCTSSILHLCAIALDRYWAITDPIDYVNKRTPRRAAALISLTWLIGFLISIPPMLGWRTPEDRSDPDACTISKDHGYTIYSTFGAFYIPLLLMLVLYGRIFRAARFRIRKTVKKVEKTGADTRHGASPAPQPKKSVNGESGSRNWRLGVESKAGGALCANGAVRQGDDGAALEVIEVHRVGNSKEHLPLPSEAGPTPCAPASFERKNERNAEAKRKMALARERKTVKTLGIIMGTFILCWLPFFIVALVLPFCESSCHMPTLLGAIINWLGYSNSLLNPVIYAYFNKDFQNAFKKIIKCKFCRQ
Method: The objective of this study was to evaluate the binding properties of test compounds on 5-hydroxytryptamine receptor 1A (5-HT1A).
as §1
• 2. 8 doses of reference and test compounds were prepared starting from 10 mM stock solution as required by 5-fold serial dilutions with 100% (v/v) DMSO. • 3. UniFilter-96 GF/B plate was pretreated: • i. 50 μl/well of 0.5% (v/v) PEI was added to UniFilter-96 GF/B plates. The plates were sealed and incubated at 4° C. for 3 hrs. • ii. After incubation, the plates were washed 3 times with ice-cold wash buffer (50 mM Tris, pH7.4). • 4. Assay plate was prepared: • i. Cell membrane was diluted with assay buffer and 100 μl/well was added to 96 round well plates to reach a concentration of 20 μg/well. • ii. 8 concentrations of reference or test compounds were prepared and 50 μl/well was added to 96 round deep well plates. • iii. [3H]-8-Hydroxy-DPAT was diluted with assay buffer to 2 nM (4×final concentration) and 50 μl/well was added to 96 round well plates. • 5. The plate was centrifuged at 1000 rpm for 30 secs and then agitated at 600 rpm, R.T. for 5 min. • 6. The plates were sealed and the plate was incubated at 27° C. for 90 min. • 7. The incubation was stopped by vacuum filtration onto GF/B filter plates followed by 4 times washing with ice-cold wash buffer (50 mM Tris, pH7.4). • 8. The plates were dried at 37° C. for 45 min. • 9. The filter plates were sealed and 40 μl/well of scintillation cocktail was added. • 10. The plate was read by using a Microbeta^2 microplate counter.
as §2, with “[…]” for “function”

[3] = Liver microsomes stability, human; settings: for Remaining Percentage (%) after 60 min, Human, With cofactors / Remaining Percentage (%) after 60 min, Human, Without cofactors: human liver microsomes; for half-life at 2 μM / microsomal CLint at 2 μM / metabolic stability in liver microsomes (statement): human; for half-life at 2 μM / microsomal CLint at 2 μM: pooled human liver microsomes; for metabolic stability in liver microsomes (statement): rat and mouse liver microsomes
Method: (§3) 40 μL of 10 mM NADPH solution was added to each well. The final concentration of NADPH was 1 mM. The negative control samples were prepared by replacing NADPH with 40 μL of ultra-pure H2O. Samples were prepared in duplicate. Negative controls were prepared in singlet.
(§4) This study was performed in duplicate.
(§5) LC/MS analysis was performed for all samples from this study using a Shimadzu liquid chromatograph separation system equipped with degasser DGU-20A5R; solvent delivery unit LC-30AD; system controller SIL-30AC; column oven CTO-30A; CTC Analytics HTC PAL System. Mass spectrometric analysis was performed using a Triple Quad™ 5500 instrument.
(§6) All calculations were carried out using Microsoft Excel.
(§7) All calculations were carried out using Microsoft Excel. Peak areas were determined from extracted ion chromatograms.

[4] = Liver microsomes stability, rat; settings: for half-life at 2 μM / microsomal CLint at 2 μM: male, rat; for half-life at 2 μM / microsomal CLint at 2 μM / Remaining Percentage (%) after 60 min, Rat, With cofactors / Remaining Percentage (%) after 60 min, Rat, Without cofactors: rat liver microsomes
Method: as §3, §4, §5, §6, §7

Chain of human 5-HT2A receptor (P28223 whole entry): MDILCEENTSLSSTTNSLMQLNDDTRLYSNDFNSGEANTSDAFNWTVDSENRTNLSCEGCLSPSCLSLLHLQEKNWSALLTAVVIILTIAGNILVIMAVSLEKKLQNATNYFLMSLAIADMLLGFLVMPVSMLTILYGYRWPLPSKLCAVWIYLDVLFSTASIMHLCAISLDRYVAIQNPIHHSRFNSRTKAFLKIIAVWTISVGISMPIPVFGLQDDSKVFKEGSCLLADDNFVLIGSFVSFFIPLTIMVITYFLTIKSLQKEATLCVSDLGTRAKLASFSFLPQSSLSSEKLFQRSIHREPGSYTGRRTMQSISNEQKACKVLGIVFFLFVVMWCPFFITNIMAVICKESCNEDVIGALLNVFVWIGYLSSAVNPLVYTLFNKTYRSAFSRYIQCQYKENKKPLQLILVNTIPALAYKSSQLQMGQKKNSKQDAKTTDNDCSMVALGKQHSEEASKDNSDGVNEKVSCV

Row | SMILES | IC50 [1] [nM] | IC50 [2] [nM] | Remaining Percentage (%) after 60 min, Human, With cofactors [3] [%] | Remaining Percentage (%) after 60 min, Human, Without cofactors [3] [%] | half-life at 2 μM [3] [min] | microsomal CLint at 2 μM [3] [µL/min/mg] | metabolic stability in liver microsomes (statement) [3] | half-life at 2 μM [4] [min] | microsomal CLint at 2 μM [4] [µL/min/mg] | Remaining Percentage (%) after 60 min, Rat, With cofactors [4] [%] | Remaining Percentage (%) after 60 min, Rat, Without cofactors [4] [%] | IC50 ([2]; radioligand binding, [3H]-8-Hydroxy-DPAT, read-out: h5-HT1A, IC50) [nM] | t1/2 Human ([3]; human liver microsomes with NADPH, 2 μM) [min] | t1/2 Rat ([4]; rat liver microsomes with NADPH, 2 μM) [min]
1 | CN1CCC[C@@H]1Cc1c[nH]c2cccc(O)c12 [Compound 10, (R)-3-((1-methylpyrrolidin-2-yl)methyl)-1H-indol-4-ol] | 219 | 148 |  |  |  |  |  |  |  |  |  |  |  | 
2 | [2H]C([2H])(c1c[nH]c2cccc(O)c12)[C@H]1CCCN1C([2H])([2H])[2H] [Compound 13, (R)-3-((1-(methyl-d3)pyrrolidin-2-yl)methyl-d2)-1H-indol-4-ol] | 219 | 156 |  |  |  |  |  |  |  |  |  |  |  | 
3 | CN1CCC[C@@H]1Cc1c[nH]c2cccc(OC(=O)CCCC(=O)Oc3cccc4[nH]cc(C[C@H]5CCCN5C)c34)c12 [Compound I-13, Bis(3-(((R)-1-methylpyrrolidin-2-yl)methyl)-1H-indol-4-yl) glutarate] | 37 | 154 | 0 | 0 | < 4.51 | > 307 | rapidly metabolized | < 4.51 | > 307 | 0 | 0 |  |  | 
4 | [2H]C([2H])(c1c[nH]c2cccc(OC(=O)CCCC(=O)Oc3cccc4[nH]cc(C([2H])([2H])[C@H]5CCCN5C([2H])([2H])[2H])c34)c12)[C@H]1CCCN1C([2H])([2H])[2H] [Compound I-22, bis(3-(((R)-1-(methyl-d3)pyrrolidin-2-yl)methyl-d2)-1H-indol-4-yl) glutarate] | 44.8 | 124 | 0 | 1.38 | 4.67 | 297 | rapidly metabolized | < 4.51 | > 307 | 0 | 0.22 |  |  | 
5 | CN(C)CCc1c[nH]c2cccc(O)c12 [Psilocin, 4-hydroxy-N,N-dimethyltryptamine, reference compound] |  |  | 70.16 |  |  |  |  |  |  | 62.68 |  | 196 | 117.32 | 89.01
